According to patent US8697691B2, “Alkyl 3-((2-amidoethyl)amino)-8-azabicyclo[3.2.1]octane-8-carboxylate analogs as selective M1 agonists and methods of making and using same” (Vanderbilt University, priority 2009, dated 2014):

Target: T1, hM5 receptor (Homo sapiens, UniProt P08912)
T1 construct: expressed in transfected cells; host or cells: CHO cells (Levey et al., 1991)
T1 sequence (P08912 1-532): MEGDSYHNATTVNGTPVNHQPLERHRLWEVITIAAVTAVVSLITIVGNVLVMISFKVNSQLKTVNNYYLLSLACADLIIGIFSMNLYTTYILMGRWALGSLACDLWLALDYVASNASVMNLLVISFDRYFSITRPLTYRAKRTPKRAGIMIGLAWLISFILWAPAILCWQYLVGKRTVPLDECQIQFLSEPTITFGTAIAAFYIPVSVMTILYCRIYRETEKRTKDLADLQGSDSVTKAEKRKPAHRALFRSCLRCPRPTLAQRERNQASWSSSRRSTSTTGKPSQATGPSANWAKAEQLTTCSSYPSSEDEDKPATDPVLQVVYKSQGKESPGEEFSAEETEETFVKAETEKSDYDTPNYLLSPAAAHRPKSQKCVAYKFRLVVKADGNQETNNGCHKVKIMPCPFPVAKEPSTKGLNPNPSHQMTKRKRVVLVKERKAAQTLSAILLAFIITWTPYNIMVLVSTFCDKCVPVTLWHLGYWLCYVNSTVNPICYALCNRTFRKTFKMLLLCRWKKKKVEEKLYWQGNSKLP
Assay: Calcium mobilization assay, CHO cells stably expressing hM5
Type: cell-based
Excerpt: Chinese hamster ovary (CHO-K1) cells stably expressing rat (r)M1 were purchased from the American Type Culture Collection and cultured according to their indicated protocol. CHO cells stably expressing human (h)M2, hM3, and hM5 were described previously (Levey et al., 1991); hM1 and hM4 cDNAs were purchased from Missouri S&T cDNA Resource; rM4 cDNA was provided by T. I. Bonner (National Institutes of Health, Bethesda, Md.). hM1, hM4, and rM4 cDNAs were used to stably transfect CHO-K1 cells purchased from the American Type Culture Collection using Lipofectamine2000. […]
For low throughput measurement of agonist-evoked increases in intracellular calcium, CHO-K1 cells stably expressing muscarinic receptors were plated in 100 μL of growth medium at 5×10^4 (rM1, hM3, and hM5) or 6×10^4 cells per well (rM1 Y381A, hM2, and rM4) in Costar 96-well black-walled, tissue culture (TC)-treated, clear-bottom plates (Fisher). […] For calcium fluorescence measurements, CRCs of compounds (50 μl, 2×) were added 19 s after the beginning of data collection via a Flexstation II (Molecular Devices, Sunnyvale, Calif.). Fluorescence imaging continued for a total of 130 s acquisition time using an excitation wavelength of 488 nm, an emission wavelength of 525 nm, and a cutoff wavelength of 515 nm. […]

CCOC(=O)N1[C@@H]2CC[C@H]1C[C@H](NCCNC(=O)c1ccccc1)C2 [Example 26, ethyl 3-((3-exo)-(2-benzamidoethyl)amino)-8-azabicyclo[3.2.1]octane-8-carboxylate]
EC50: > 10 µM

CCOC(=O)N1[C@@H]2CC[C@H]1C[C@@H](NCCNC(=O)c1ccccc1)C2 [Example 27, ethyl 3-((3-endo)-(2-benzamidoethyl)amino)-8-azabicyclo[3.2.1]octane-8-carboxylate]
EC50: ~10 µM
